US20080293699A1, “Inhibitors of thapsigargin-induced cell death” (priority 2007, published 2008)

Tests used:
[1] = tested on: phospho-c-Jun; assay: Immunoblotting of thapsigargin-induced c-Jun phosphorylation in CSM14.1 cells; format: cell-based, rat; conditions: immunoblotting with phospho-specific antibody, 10 μM, 25 μM hits
Description: After confirming the pathway selectivity of compounds, additional downstream assays can be performed to map the specific signal transduction pathway inhibited by the compounds. In this regard, various antibody reagents are commercially available for assessing the status of the three major pathways known to be activated by ER stress: (1) PERK, (2) Ire1, and (3) ATF6 (Xu et al., J. Clinical Invest., 115:2656-2664, 2005). Immunoblotting experiments can be performed to assess the expression or phosphorylation (using phospho-specific antibodies) of marker proteins in these pathways. […] CSM 14.1 cells were cultured with DMSO or with 25 μM of hit compounds for two hours, followed by treatment of thapsigargin (15 μM). Cell lysates were prepared and analyzed by SDS-PAGE/immunoblotting using antibodies specific for phospho-c-Jun, phospho-eIF2α, phospho-p38 MAPK, and tubulin (a loading control). CSM14.1 cells were cultured with either DMSO or one of the active compounds at 1, 5, and 10 μM, followed two hours later by 15 μM TG. After two hrs, cell lysates were prepared, normalized for protein content, and either analyzed by SDS-PAGE/immunoblotting using anti-p38-MAPK pan-reactive antibody or phospho-specific antibody with ECL-based detection, followed by densitometry analysis of x-ray films, normalizing phosphor-p38 MAPK relative to total p38 MAPK, or analyzed using a meso-scale instrument from MSD and a procedure in which total p38 MAPK is captured on plates, and the relative amounts of phosphorylated protein were determined using phospho-specific antibody (MSD catalog #K15112D1). […] Suppression of p38 MAPK and c-Jun phosphorylation was dose-dependent, and could not be explained by a decline in total levels of these proteins. […] Proteolytic processing of ATF6 was also not inhibited by our hit compounds. […] Screens of other libraries (such as the NIH compound collection) may yield cytoprotective compounds with different mechanisms.
1) CSM14.1 cells were plated at a density of 2×10^5 cells/well at 6 well dish (Greiner Bio one) in DMEM containing 2% FBS and antibiotics.
2) After overnight incubation, cells were treated by DMSO (0.5%) or compounds (25 μM) for two hours, followed by TG (15 uM) treatment.
3) After two hours, cells were lyzed in 250 uL of lysis buffer and subjected to protein concentration decision, and to SDS PAGE/Western blotting using antibodies specific for phospho p38 MAPK (Cell signaling 9211), p38 MAPK (Santa Cruz-C20), phospho c-Jun (Cell signaling 9164), c-Jun (Santa Cruz-SC 1694), phospho eIF2α (Cell signaling 3597) and α-tubulin.
CSM 14.1 cells were cultured with DMSO or with 25 μM of hit compounds for two hours followed by treatment with thapsigargin (15 μM). Cell lysates were prepared and analyzed by SDS-PAGE/immunoblotting using antibodies specific for: c-Jun, phosphor-c-Jun (ser 73), eIF2a, phosphor-eIF2a (ser 51), p38 MAPK, phosphor-p38 MAPK (Thr180/Tyr182), ATF-6, CHOP and tubulin (loading control). ER stress-induced activation of C-Jun and p38 MAPK is suppressed by the 11 hit compounds.
CSM cells were treated with two compounds at increasing doses. Pre-incubation time, thapsigargin treatment, cell extract preparation and immunoblotting protocols were as described previously.

[2] = target: Ire1 (Homo sapiens, UniProt O75460); assay: Ire1 autophosphorylation in vitro kinase assay; format: biochemical; conditions: 32P-γ-ATP, up to 50 μM
Chain of Ire1 (O75460 19-977, species assumed): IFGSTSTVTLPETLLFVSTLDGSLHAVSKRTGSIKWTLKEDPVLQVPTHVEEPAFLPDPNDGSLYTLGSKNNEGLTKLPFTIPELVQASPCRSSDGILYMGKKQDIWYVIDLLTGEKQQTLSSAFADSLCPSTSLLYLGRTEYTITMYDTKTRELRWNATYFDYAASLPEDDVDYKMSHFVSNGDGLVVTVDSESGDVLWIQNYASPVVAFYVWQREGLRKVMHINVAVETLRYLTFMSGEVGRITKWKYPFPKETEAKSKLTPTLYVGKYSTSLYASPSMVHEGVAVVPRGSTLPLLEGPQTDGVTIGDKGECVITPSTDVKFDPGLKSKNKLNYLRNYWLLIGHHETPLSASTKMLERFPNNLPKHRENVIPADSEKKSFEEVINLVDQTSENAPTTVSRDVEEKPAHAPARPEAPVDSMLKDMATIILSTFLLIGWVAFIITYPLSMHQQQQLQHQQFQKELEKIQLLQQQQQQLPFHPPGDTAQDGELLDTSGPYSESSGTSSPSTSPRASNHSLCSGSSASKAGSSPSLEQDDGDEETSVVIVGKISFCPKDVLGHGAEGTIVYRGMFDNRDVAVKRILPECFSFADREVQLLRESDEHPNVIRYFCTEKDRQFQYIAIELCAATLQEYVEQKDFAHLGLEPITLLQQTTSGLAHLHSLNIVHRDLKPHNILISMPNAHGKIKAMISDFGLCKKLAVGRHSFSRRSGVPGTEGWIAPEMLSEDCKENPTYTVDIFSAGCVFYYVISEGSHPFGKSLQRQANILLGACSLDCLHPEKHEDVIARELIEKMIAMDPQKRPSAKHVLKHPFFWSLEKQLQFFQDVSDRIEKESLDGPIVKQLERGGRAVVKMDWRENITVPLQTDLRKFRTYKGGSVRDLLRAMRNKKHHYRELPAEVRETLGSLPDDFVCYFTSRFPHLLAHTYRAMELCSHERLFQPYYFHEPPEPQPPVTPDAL
Experimental: Suppression of thapsigargin-induced phosphorylation of p38MAPK was also measured by a quantitative ELISA-methods, with IC50 for p38MAPK phosphorylation estimated at <5 μM. In contrast, thapsigargin-induced expression of CHOP, expression of ATF4, proteolytic processing of ATF6, phosphorylation of eIF2a (Ser 51), auto-phosphorylation of Ire1a or auto-phosphorylation of ASK1 were not inhibited directly by CID-2878746 at concentrations up to 50 μM tested by in vitro kinase assay using p32-γ-ATP substrate. […] Thapsigargin-induced reductions in phosphorylation of ASK1 at the serine 967 site in ASK1 transfected 293T cells are inhibited by compound 5962123 at concentrations of 50-100 μM, as determined by immunoblotting using anti-phospho-specific (ser 967) antibody, but thapsigargin-induced changes in phosphorylation of ASK1 at ser 83 and thr 845 are not modulated by compound 5962123 at concentrations as high as 100 μM in ASK1-transfected HEK293T cells.
C-Jun and p38 MAPK work downstream of the Ire1 pathway (see FIG. 21), we tested whether one of our hit compounds (6239507) inhibits autophosphorylation of any of kinases in this Ire1-ASK1-JNK/p38 MAPK pathway. […] An Ire1 autophosphorylation assay was performed. […] Incorporation values of ^32P-γ-ATP were evaluated by a scintillation counter. […] Incorporation values of ^32P-γ-ATP were evaluated by a scintillation counter. […]

[3] = tested on: primary mouse neuronal cells; assay: Thapsigargin-induced death of primary mouse neuronal cells, immunostaining and microscopy; format: cell-based; conditions: 25 μM, two hours before thapsigargin for 24 hours
Experimental: (§1) Primary cortical neuron cells were prepared from the […] of mice. After 14 days of maturation, the cells were preincubated with DMSO (0.2%) or 25 μM of compound 6239507 for two hours. The cells were then treated with thapsigargin (TG) for 24 hours. Cells were fixed with an aldehyde solution and subjected to immunostaining with NeuN and MAP2 antibody for staining the neuronal body and axon network. Hoechst dye was used to stain nuclei. To show the loss of the axon network by thapsigargin, a wide field was captured by fluorescent microscopy. Cells showing a condensed nucleus and shrunken neuritis were considered as dead to evaluate cell death.
as §1, with “Fluorescent microscopy was used to” for “To”, “thapsigargin.” for “thapsigargin, a wide field was captured by fluorescent microscopy.”

SMILES	Thapsigargin-induced phosphorylation of c-Jun [1]	Ire1 auto-phosphorylation ([2]; listed as CID-2878746)	Ire1 auto-phosphorylation [2]	Inhibition of ER stress-induced cell death in primary mouse neuronal cells [3]
CCN(CC)c1ccc(C2Nc3ccccc3NC3=C2C(=O)CC(c2ccccc2)C3)cc1 (centres unmarked) [Compound 5962123, 6-(4-diethylaminophenyl)-9-phenyl-5,6,8,9,10,11-hexahydrobenzo[c][1,5]benzodiazepin-7-one]	inhibits	not inhibited		
COc1ccc(C2CC(=O)C3=C(C2)Nc2ccccc2NC3c2ccccc2C(F)(F)F)cc1OC (centres unmarked) [Compound 6237735]	dose-dependent decrease			
COc1ccc(C2CC(=O)C3=C(C2)Nc2ccccc2NC3c2cccc(Oc3ccccc3)c2)cc1OC (centres unmarked) [Compound 6239507]			does not modulate	can inhibit
